# Measured values reported in the METLIN SMRT retention time set (Domingo-Almenara et al. 2019).
# Assay: gradient 5% acetonitrile 3 min, to 50% in 2 min, to 85% in 15 min, held 3 min, 100 µL/min
# Settings: column: Zorbax Extend-C18 2.1 x 50 mm; eluents: water / acetonitrile, 0.1% formic acid
# Method in brief: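 Data were gathered over 3 months by HPLC coupled to a quadrupole time-of-flight mass spectrometer, operated in positive and negative ionization mode. Mixtures of ~100 pure standards ran on a Zorbax Extend-C18 column (2.1 × 50 mm, 1.8 μm) at 100 μL/min, with water and acetonitrile each containing 0.1% formic acid and dead and dwell volumes of 40 μL and 900 μL. Retention time was read from adduct peaks picked by computer and checked manually.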
row,SMILES,RP-LC retention time
1,Cc1ccc2c(c1)N(Cc1ccccc1)N=C(C(=O)N1CCCCC1)S2(=O)=O,1010 s
2,CCCCC1CCC(C(=O)Nc2nc(-c3ccc4c(c3)NC(=O)CO4)c(C)s2)CC1 (stereo not given),1240 s
3,CC(C)CCN1C(=O)C2(NCCc3c2[nH]c2ccccc32)c2cc(Br)ccc21 (stereo not given),835 s
4,Cc1cc2oc(C(=O)NCC(c3cccs3)N(C)C)cc(=O)c2cc1Cl (stereo not given),652 s
5,Cc1cc(N2CCN(C(=O)c3cccc(C(F)(F)F)c3)CC2)nc2nnc(C)n12,649 s
6,O=C(NCCc1c[nH]c2ccc(Cl)cc12)c1cn2cc(Cl)ccc2n1,886 s
7,O=C(NC1CCN(c2cc(-c3ccc(F)cc3)[nH]n2)C1)c1ccc(F)cc1Cl (stereo not given),740 s
8,CCOc1ccccc1-c1noc(-c2cc(-c3ccccc3)n[nH]2)n1,952 s
9,O=C(NCCCN1CCCCC1)C1CCN(c2cncnc2N2CCCCC2)CC1,569 s
10,O=C(Cc1ccccc1Br)N1CCN(Cc2nncn2C2CCCCC2)CC1,642 s
11,O=C(Nc1nnc(SCC(=O)N2CCCc3ccccc32)s1)c1cccs1,827 s
12,Cc1csc(-c2csc(S(=O)(=O)NCc3cccs3)c2)n1,907 s
13,CC(=O)Nc1ccc(C(=O)N2CCCCCC2)o1,665 s
14,CN1CCN(CCCNC(=O)CCCN2C(=O)C(c3ccccc3)Oc3cccnc32)CC1 (stereo not given),595 s
15,Cc1cc(N2CCN(C)CC2)nc2ccc(NC(=S)NC3CCCC(C)C3C)cc12 (stereo not given),639 s
16,Cc1ccc(OCC(=O)Nc2cc3c(cc2C)n(C)c(=O)n3C)cc1,980 s
17,CC(C)c1ccc(S(=O)(=O)N2CCN(c3cnn4cnnc4c3)CC2)cc1,795 s
18,O=C1NC(C(=O)NC2CCCC2)Cn2cccc21 (stereo not given),628 s
19,Cc1nn(-c2ccc(F)cc2)c(C)c1S(=O)(=O)N1CCC(C(=O)NCC2CCCO2)CC1 (stereo not given),742 s
20,Cc1ccc(N2C(=O)CCS2(=O)=O)cc1S(=O)(=O)N1CCN(c2ccccn2)CC1,635 s
21,O=S(=O)(NC1CCCCC1)c1cc(-c2noc(C3CCCC3)n2)cs1,1230 s
22,COc1ccccc1C1(CNC(=O)Nc2ccccc2F)CCOCC1,810 s
23,Cn1cc(-c2cc3n(n2)CCCN3C(=O)CCC(=O)NCCN2CCOCC2)c2ccccc21,618 s

row,SMILES,RP-LC retention time
1,Fc1cccc(CN2CCc3nc(N4CCOCC4)ncc3C2)c1,604 s
2,Cc1cc(C)c(S(=O)(=O)N2CCC(C)(C(=O)NCc3ccc4c(c3)OCO4)CC2)cc1C,1010 s
3,Fc1ccc(-c2noc(-c3ccc(NCC4CCCO4)nc3)n2)cc1 (stereo not given),940 s
4,CC(C)(C)C(O)CCNC(=O)C(=O)NC1CC1 (stereo not given),622 s
5,CCOC(=O)c1c(-c2cccnc2)n(C)c2cc(-c3cccnc3)c(OC)cc12,634 s
6,CC(C)n1nnc2cc(S(=O)(=O)N3CCCC(C(=O)N4CCC(C(N)=O)CC4)C3)ccc21 (stereo not given),652 s
7,O=C1CCC(C(=O)N2CCCn3ccnc3C2C2CCCC2)=NN1 (stereo not given),564 s
8,CCCn1cnc2c(Sc3c([N+](=O)[O-])ncn3C)nc(N)nc21,681 s
9,COc1ccc(C2CCCN2C(=O)c2nn(C)cc2Cl)cc1 (stereo not given),770 s
10,CCC(=O)N(C1CCOCC1)C1CCN(S(=O)(=O)c2ccc(C(C)C)cc2)CC1,983 s
11,CC(C)Cn1c(=O)c(N2CCN(C(=O)Cc3ccsc3)CC2)nc2ccncc21,653 s
12,COc1ccc(F)cc1S(=O)(=O)NC1CCc2nnc(C3CC3)n2CC1 (stereo not given),641 s
13,CC(C)CNC(=O)c1ccc2c(c1)CCCN2S(=O)(=O)c1ccccc1,936 s
14,O=C(Cc1ccccc1Cl)NC1CCN(c2ccc(=O)n(CC3CC3)n2)C1 (stereo not given),760 s
15,CC(C)Cc1csc(-c2csc(S(=O)(=O)NC3CCCCC3)c2)n1,1320 s
16,C=CCNC(=O)c1c2c(nc3ccc(C)cc13)CCC2,606 s
17,O=C(Nc1nccs1)C1CCN(C(=O)C2CC(=O)N(c3ccc(F)cc3)C2)CC1 (stereo not given),672 s
18,COc1ccc2c(CCNC(=O)c3ccc(F)cc3)c[nH]c2c1,778 s
19,CC1CCN(CC2CCCN(C(=O)C3(c4ccccc4)CC3)CC2)CC1 (stereo not given),660 s
20,COC(=O)c1cc(N2CCN(C)CC2)nc2c(C)cccc12,670 s
21,CCN(CC)C(=O)c1ccc2c(c1)nnn2CCNC(=O)Nc1ccc2c(c1)CCC2,764 s
22,COc1cc(Cl)c(NC(=O)C2CCN(C(=O)C3Sc4ccccc4NC3=O)CC2)c(OC)c1 (stereo not given),795 s
23,COc1ccc(OC)c(NS(=O)(=O)c2cc3n(c2)CCCNC3=O)c1,639 s

row,SMILES,RP-LC retention time
1,O=C(c1cc(-c2ccco2)on1)N1CCCC1c1ccccc1F (stereo not given),777 s
2,CC(C)c1nnc(-c2ccc(S(=O)(=O)N3CCCCC3)o2)o1,890 s
3,COc1ccc(-c2nnc(-c3ccc(C)c(S(=O)(=O)NC(C)C(=O)O)c3)o2)cc1OC (stereo not given),748 s
4,CCn1cc(CN2CCC(C(=O)NC3CCCCC3)CC2)c2cc(OC)ccc21,688 s
5,O=C(NCCN1CCc2ccccc2C1)C1CCN(c2nnc3ccccn23)CC1,563 s
6,COc1ccccc1-c1cc(C(N)=O)c2cccc(C)c2n1,828 s
7,CCOC(=O)c1ccc(N2C=C(C#N)S(=O)(=O)c3ccc(Cl)cc32)cc1,1020 s
8,CCC(C)NC(=O)c1nc(-c2ccnc(N3CCCCCC3)c2)no1 (stereo not given),708 s
9,O=C(Cn1cnc2c(sc3nc(-c4ccccc4)ccc32)c1=O)NCc1ccc(F)cc1,982 s
10,CCOC(=O)CNC(=O)NCC(c1ccccc1)c1c[nH]c2ccccc12 (stereo not given),847 s
11,COc1ccc(-c2ncc3c(n2)CCN(S(=O)(=O)c2cccc(C)c2)C3)cc1,1070 s
12,Cc1ccc(Nc2cc(C)nc(N3CCN(C(=O)Nc4cccc(C)c4)CC3)n2)cc1,1460 s
13,CN(C)CCCN1c2ccccc2Sc2ccc3ccccc3c21,772 s
14,CCN(CC)CCNC(=O)c1c(-c2ccccc2)c(-c2ccccc2)nn(C)c1=O,646 s
15,CCN(CC)c1ccc(-c2noc(CN3CCC4(CC3)OCCO4)n2)cn1,579 s
16,CCC(C)NC(=O)c1c2c(cn(-c3ccccc3)c1=O)C(=O)CC(C)(C)C2 (stereo not given),942 s
17,Cc1ccc(CNC(=O)C2(C)CCCN(C(=O)NCCc3ccccc3)C2)cc1 (stereo not given),912 s
18,Cc1ccc(C)c(NS(=O)(=O)c2cc(-c3[nH]ncc3C(=O)N3CCCC3)oc2C)c1,760 s
19,FC1(c2nc(Cc3ccccc3)no2)CCN(Cc2ccoc2)CC1,693 s
20,O=C(Nc1cccc(OCc2nnc(-c3ccc(Cl)cc3)o2)c1)C1CCC1,978 s
21,Cc1ccc(CNC(=O)c2nnc(-c3ccc(S(=O)(=O)N4CCCCC4)cc3)o2)cc1,1020 s
22,CSc1ccc(CNC(=O)C2CCCN(c3ncc(-c4ccc(F)cc4)cn3)C2)cc1 (stereo not given),1090 s
23,Cc1c(S(=O)(=O)N2CCCC(C)C2)c(C)n(C)c1C(=O)Nc1ccccc1F (stereo not given),895 s

row,SMILES,RP-LC retention time
1,CCCCc1ccc(NC(=O)C2CCN(C(=O)C(C)(C)C)CC2)cc1,1020 s
2,COc1cccc(CNC(=O)NCCC2CCN(S(=O)(=O)c3ccccc3)CC2)c1,821 s
3,O=S(=O)(NCCS(=O)(=O)N1CCc2ccccc21)c1cccnc1,700 s
4,CCN(CC)CCCNC(=O)c1nnc(-c2ccc(S(=O)(=O)N3CCOCC3)cc2)o1,600 s
5,COc1ccc(C(=O)N2CCC3(C2)C(=O)Nc2ccc(OC)cc23)c(OC)c1 (stereo not given),692 s
6,Cc1nnc(N2CCCC(C(=O)NCCCc3ccccc3)C2)c2nn(-c3ccccc3)c(C)c12 (stereo not given),762 s
7,COc1ccc(C2CC(=O)N(c3ccccc3)C(=O)C2)cc1OC,860 s
8,CCn1nc(C(=O)Nc2nnc(-c3cc4ccccc4o3)o2)cc1C,770 s
9,Cc1ccc(N2CCC(NC(=O)c3cc(F)cc(F)c3)C2=O)cc1 (stereo not given),858 s
10,CC(C)c1cc(C(=O)Nc2ccccc2F)no1,1020 s
11,CCOC(=O)CC(NC(=O)CCc1c(C)nc2ncnn2c1C)c1ccc(C)cc1 (stereo not given),695 s
12,O=S(=O)(c1cccc2cccnc12)N1CCc2nc(-c3ccc(Cl)cc3)ncc2C1,1140 s
13,Cc1ccc(-c2csc(NC(=O)CN3C(=O)COc4ccc(Cl)cc43)n2)cc1,1070 s
14,CC(C)Cc1nc(-c2ccccc2)oc1CC(=O)Nc1ccc(F)cc1Cl,1180 s
15,CC(=O)N1CCC(C2CCN(C(=O)CN3CCCC3=O)C2)CC1 (stereo not given),580 s
16,CCOc1cc(=O)n2c(c1C(=O)N1CCC3(CC1)OCCO3)CCCCC2,639 s
17,CC1CCCN(C(=O)c2cn(-c3cc(-c4nc(C5CC5)no4)ccn3)cn2)C1 (stereo not given),887 s
18,CCCN1C(=O)COc2ccc(-c3noc(C(C)Oc4ccccc4)n3)cc21 (stereo not given),1160 s
19,Cn1c(N2CCC(C(=O)NCc3ccccn3)CC2)cc(=O)n(C)c1=O,566 s
20,Cc1nc(-c2cc(S(=O)(=O)NCc3ccccc3Cl)c(C)s2)cs1,1080 s
21,COc1ccc(-c2nc3cc(C)ccn3c2NC(=O)Cc2cccc3ccccc23)cc1,726 s
